Assays:
FLT3 = target: T1, FLT3 (Homo sapiens, UniProt P36888); assay: TR-FRET kinase activity assay, FLT3; type: biochemical; conditions: ATP at Km, 60 minutes
T1 sequence (P36888 27-993): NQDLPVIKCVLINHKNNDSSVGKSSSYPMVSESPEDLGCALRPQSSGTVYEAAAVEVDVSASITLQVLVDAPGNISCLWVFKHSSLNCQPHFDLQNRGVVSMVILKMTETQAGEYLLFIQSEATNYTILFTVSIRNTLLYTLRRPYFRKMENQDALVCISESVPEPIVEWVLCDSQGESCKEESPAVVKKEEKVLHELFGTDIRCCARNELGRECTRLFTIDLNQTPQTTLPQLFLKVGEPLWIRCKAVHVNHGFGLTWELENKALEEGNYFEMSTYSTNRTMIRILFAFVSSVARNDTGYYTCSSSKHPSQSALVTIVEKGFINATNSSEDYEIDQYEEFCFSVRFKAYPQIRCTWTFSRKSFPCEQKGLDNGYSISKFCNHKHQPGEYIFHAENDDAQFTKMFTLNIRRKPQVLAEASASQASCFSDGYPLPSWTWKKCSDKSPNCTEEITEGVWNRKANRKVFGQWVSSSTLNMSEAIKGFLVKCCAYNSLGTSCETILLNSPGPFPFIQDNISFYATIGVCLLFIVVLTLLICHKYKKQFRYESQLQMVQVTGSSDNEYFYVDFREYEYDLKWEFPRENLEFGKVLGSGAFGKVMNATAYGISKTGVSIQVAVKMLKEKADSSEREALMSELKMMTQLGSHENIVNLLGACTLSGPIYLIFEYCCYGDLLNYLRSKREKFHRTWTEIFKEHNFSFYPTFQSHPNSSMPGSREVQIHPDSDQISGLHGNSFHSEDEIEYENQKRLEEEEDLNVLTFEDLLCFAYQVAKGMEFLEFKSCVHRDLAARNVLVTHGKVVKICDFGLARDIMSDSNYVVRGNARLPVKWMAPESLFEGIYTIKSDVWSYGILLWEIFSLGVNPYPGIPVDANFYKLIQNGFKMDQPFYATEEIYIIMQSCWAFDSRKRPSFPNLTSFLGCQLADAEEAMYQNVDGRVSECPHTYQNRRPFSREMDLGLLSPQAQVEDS
Method in brief: (§1)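 TR-FRET signal from Eu-labeled phospho-site antibody bound to tyrosine-phosphorylated fluorescent peptide; inhibition lowers signal, giving IC50. Reactions: 50 mM HEPES pH 7.5, 10 mM MgCl2, 1 mM EGTA, 0.01% Brij 35, 1 mM DTT, ATP at Km per enzyme, 60 min, RT.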

AXL = target: T2, AXL (Homo sapiens, UniProt P30530); assay: TR-FRET kinase activity assay, AXL; type: biochemical; conditions: ATP at Km, 60 minutes
T2 sequence (P30530 26-894): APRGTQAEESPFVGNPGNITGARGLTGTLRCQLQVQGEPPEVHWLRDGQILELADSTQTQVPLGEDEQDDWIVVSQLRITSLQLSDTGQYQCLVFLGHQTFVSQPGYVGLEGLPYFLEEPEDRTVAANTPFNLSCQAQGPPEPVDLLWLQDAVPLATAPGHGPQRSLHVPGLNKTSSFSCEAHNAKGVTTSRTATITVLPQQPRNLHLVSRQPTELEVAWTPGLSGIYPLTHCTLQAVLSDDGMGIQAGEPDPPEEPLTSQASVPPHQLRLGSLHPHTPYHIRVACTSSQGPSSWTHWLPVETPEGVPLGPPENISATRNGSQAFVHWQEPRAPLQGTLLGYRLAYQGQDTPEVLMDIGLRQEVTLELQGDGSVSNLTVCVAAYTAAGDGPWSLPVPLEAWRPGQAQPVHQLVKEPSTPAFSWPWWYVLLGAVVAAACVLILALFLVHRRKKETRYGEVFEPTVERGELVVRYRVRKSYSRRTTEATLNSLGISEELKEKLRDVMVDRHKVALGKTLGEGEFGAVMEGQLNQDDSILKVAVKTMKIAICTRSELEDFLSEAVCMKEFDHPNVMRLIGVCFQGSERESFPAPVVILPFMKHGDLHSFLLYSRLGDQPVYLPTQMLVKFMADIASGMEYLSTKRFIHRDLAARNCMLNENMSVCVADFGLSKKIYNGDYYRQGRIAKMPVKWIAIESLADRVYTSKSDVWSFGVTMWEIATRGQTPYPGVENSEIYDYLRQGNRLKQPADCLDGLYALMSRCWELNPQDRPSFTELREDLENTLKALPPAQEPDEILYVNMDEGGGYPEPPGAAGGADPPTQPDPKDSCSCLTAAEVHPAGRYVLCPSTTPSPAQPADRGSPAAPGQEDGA
Method in brief: as §1

SMILES | IC50 (FLT3) [µM] | IC50 (AXL) [µM]
C[C@@H](CC(F)(F)F)Nc1ncc2c(OC3CC(C)(C)N(C[C@@H]4CCCO4)C(C)(C)C3)ncc([C@H]3CC[C@H](O)CC3)c2n1 [Compound 418] | ≤ 0.1 | ≤ 0.1
COC[C@H](C)Nc1ncc2c(OC3CCOCC3)ncc(-c3ccc(S(C)(=O)=O)cc3)c2n1 [Compound 400] | 1 to 10 | 1 to 10
C[C@@H](CC(F)(F)F)Nc1ncc2c(O[C@H]3C[C@@H](CN4CCOCC4)C3)ncc([C@H]3CC[C@H](O)CC3)c2n1 [Compound 402] | 0.1 to 1 | ≤ 0.1
C[C@@H](CC(F)(F)F)Nc1ncc2c(OC3CC(C)(C)N(C)C(C)(C)C3)ncc([C@H]3CC[C@H](O)CC3)c2n1 [Compound 386] | 0.1 to 1 | ≤ 0.1
Cc1ncc([C@H]2CC[C@H](O)CC2)c2nc(N[C@@H](C)CC(F)(F)F)ncc12 [Compound 356] | 1 to 10 | 0.1 to 1
COC[C@H](C)Nc1ncc2c(Nc3ccncc3)ncc([C@H]3CC[C@H](O)CC3)c2n1 [Compound 362] | 1 to 10 | 1 to 10
C[C@@H](CC(F)(F)F)Nc1ncc2c(O[C@H]3C[C@@H](N4CCOCC4)C3)ncc([C@H]3CC[C@H](O)CC3)c2n1 [Compound 408] | 0.1 to 1 | 0.1 to 1
C[C@@H](CC(F)(F)F)Nc1ncc2c(O[C@H]3C[C@@](C)(O)C3)ncc([C@H]3CC[C@H](O)CC3)c2n1 [Compound 429] | 0.1 to 1 | ≤ 0.1
CCN1C(C)(C)CC(Oc2ncc([C@H]3CC[C@H](O)CC3)c3nc(N[C@@H](C)CC(F)(F)F)ncc23)CC1(C)C [Compound 391] | 0.1 to 1 | ≤ 0.1
COC[C@H](C)Nc1ncc2c(Nc3cccnc3)ncc([C@H]3CC[C@H](O)CC3)c2n1 [Compound 363] | 1 to 10 | 1 to 10
COC[C@H](C)Nc1ncc2c(OC3C[C@H](C)N(C)[C@@H](C)C3)ncc([C@H]3CC[C@H](O)CC3)c2n1 (stereo partly drawn) [Compound 387] | 1 to 10 | 0.1 to 1
C[C@@H](CC(F)(F)F)Nc1ncc2c(O[C@H]3C[C@H](O)C3)ncc([C@H]3CC[C@H](O)CC3)c2n1 [Compound 364] | 0.1 to 1 | 0.1 to 1
COC[C@H](C)Nc1ncc2c(OC3CCOCC3)ncc(-c3ccc(F)cc3)c2n1 [Compound 395] | 1 to 10 | 1 to 10
O=C(O)c1ccc(Nc2ncc3c(OC4CCOCC4)ncc([C@H]4CC[C@H](O)CC4)c3n2)cc1 [Compound 397] | ≤ 0.1 | ≤ 0.1
COC[C@H](C)Nc1ncc2c(O[C@H]3CCN(C)C(C)(C)C3)ncc([C@H]3CC[C@H](O)CC3)c2n1 [Compound 384] | 1 to 10 | 0.1 to 1
COC[C@H](C)Nc1ncc2c(OC3CC(C)(C)N(C(C)=O)C(C)(C)C3)ncc([C@H]3CC[C@H](O)CC3)c2n1 [Compound 361] | 1 to 10 | 1 to 10
C[C@@H](CC(F)(F)F)Nc1ncc2c(O[C@H]3C[C@H](N4CCOCC4)C3)ncc([C@H]3CC[C@H](O)CC3)c2n1 [Compound 422] | 0.1 to 1 | ≤ 0.1
COC[C@H](C)Nc1ncc2c(O[C@@H]3CCN(C)C(C)(C)C3)ncc([C@H]3CC[C@H](O)CC3)c2n1 [Compound 385] | 1 to 10 | 0.1 to 1
C[C@@H](COC(F)F)Nc1ncc2c(O[C@H]3C[C@@H](O)C3)ncc([C@H]3CC[C@H](O)CC3)c2n1 [Compound 407] | 1 to 10 | 0.1 to 1
C[C@@H](CC(F)(F)F)Nc1ncc2c(O[C@@H]3C[C@H]4CC[C@@H](C3)N4C[C@H]3CCCO3)ncc([C@H]3CC[C@H](O)CC3)c2n1 [Compound 412] | ≤ 0.1 | ≤ 0.1

SMILES | IC50 (FLT3) [µM] | IC50 (AXL) [µM]
C[C@@H](CC(F)(F)F)Nc1ncc2c(O[C@@H]3C[C@H]4CC[C@@H](C3)N4[C@H]3CCOC3)ncc([C@H]3CC[C@H](O)CC3)c2n1 [Compound 413] | ≤ 0.1 | ≤ 0.1
COCC(=O)N1C(C)(C)CC(Oc2ncc([C@H]3CC[C@H](O)CC3)c3nc(N[C@@H](C)CC(F)(F)F)ncc23)CC1(C)C [Compound 377] | 1 to 10 | 1 to 10
C[C@@H](CC(F)(F)F)Nc1ncc2c(O[C@H]3C[C@@H](O)C3)ncc([C@H]3CC[C@@](C)(O)CC3)c2n1 [Compound 424] | 0.1 to 1 | ≤ 0.1
CO[C@H]1C[C@@H]1Nc1ncc2c(O[C@H]3C[C@@H](O)C3)ncc([C@H]3CC[C@H](O)CC3)c2n1 [Compound 417] | 0.1 to 1 | ≤ 0.1
COC[C@H](C)Nc1ncc2c(O[C@H]3CCOC3)ncc([C@H]3CC[C@H](O)CC3)c2n1 [Compound 357] | 1 to 10 | 1 to 10
C[C@H](Nc1ncc2c(OC3CCOCC3)ncc([C@H]3CC[C@H](O)CC3)c2n1)C(F)F [Compound 365] | 1 to 10 | 0.1 to 1
NC(=O)c1ccc(Nc2ncc3c(OC4CCOCC4)ncc([C@H]4CC[C@H](O)CC4)c3n2)cc1 [Compound 399] | ≤ 0.1 | ≤ 0.1
C[C@@H](CC(F)(F)F)Nc1ncc2c(OC3CCN([C@H]4CCOC4)CC3)ncc([C@H]3CC[C@H](O)CC3)c2n1 [Compound 383] | 1 to 10 | 0.1 to 1
CCCCNc1ncc2c(OCCOC)ncc([C@H]3CC[C@H](O)CC3)c2n1 [Compound 125] | ≤ 0.1 | 0.1 to 1
C[C@@H](CC(F)(F)F)Nc1ncc2c(O[C@H]3C[C@H](CN4CCOCC4)C3)ncc([C@H]3CC[C@H](O)CC3)c2n1 [Compound 420] | 0.1 to 1 | ≤ 0.1
COC[C@H](C)Nc1ncc2c(O[C@H]3C[C@@H](C(=O)N4CCN(C)CC4)C3)ncc([C@H]3CC[C@H](O)CC3)c2n1 [Compound 393] | 1 to 10 | 0.1 to 1
COC[C@H](C)Nc1ncc2c(O[C@H]3C[C@@H](O)C3)ncc([C@H]3CC[C@@](C)(O)CC3)c2n1 [Compound 427] | > 10 | 0.1 to 1
COCCN1C(C)(C)CC(Oc2ncc([C@H]3CC[C@H](O)CC3)c3nc(N[C@@H](C)CF)ncc23)CC1(C)C [Compound 381] | 1 to 10 | ≤ 0.1
COC[C@H](C)Nc1ncc2c(O[C@@H]3CCN(C)C3)ncc([C@H]3CC[C@H](O)CC3)c2n1 [Compound 366] | 1 to 10 | 1 to 10
Cc1nccc(N2CCC(Oc3ncc([C@H]4CC[C@H](O)CC4)c4nc(N[C@@H](C)CC(F)(F)F)ncc34)CC2)n1 [Compound 375] | 0.1 to 1 | 0.1 to 1
C[C@@H](CC(F)F)Nc1ncc2c(O[C@H]3C[C@@H](O)C3)ncc([C@H]3CC[C@H](O)CC3)c2n1 [Compound 428] | 0.1 to 1 | ≤ 0.1
CCCCNc1ncc2c(NC3CCOCC3)ncc([C@H]3CC[C@H](O)CC3)c2n1 [Compound 124] | ≤ 0.1 | ≤ 0.1
O[C@H]1CC[C@H](c2cnc(OC3CCOCC3)c3cnc(Nc4ccc(-c5nn[nH]n5)cc4)nc32)CC1 [Compound 392] | 0.1 to 1 | ≤ 0.1
C[C@H](CC(F)(F)F)Nc1ncc2c(O[C@H]3C[C@@H](O)C3)ncc([C@H]3CC[C@H](O)CC3)c2n1 [Compound 406] | 1 to 10 | 1 to 10

Source: patent publication US20200291018A1, “TAM KINASE INHIBITORS” (SYROS PHARMACEUTICALS, INC., priority 2017, published 2020)
